Molecules are shown by their SMILES. Active and inactive are the calls of the source. The rule behind the calls is not given here. A value given as a limit tells only on which side of the number the result lay.

The target of data set [1] is P2Y purinoceptor 2 (Homo sapiens) (UniProt P41231). Nature of the data set: Agonist activity at human P2Y2 receptor expressed in AD293 cells assessed as inositol-1-phosphate accumulation at 100 uM. In kind it is functional, cell-based.
The target in data set [2] is T1, Ectonucleotide pyrophosphatase/phosphodiesterase family member 3 (Homo sapiens) (UniProt O14638).
T1 sequence (whole entry): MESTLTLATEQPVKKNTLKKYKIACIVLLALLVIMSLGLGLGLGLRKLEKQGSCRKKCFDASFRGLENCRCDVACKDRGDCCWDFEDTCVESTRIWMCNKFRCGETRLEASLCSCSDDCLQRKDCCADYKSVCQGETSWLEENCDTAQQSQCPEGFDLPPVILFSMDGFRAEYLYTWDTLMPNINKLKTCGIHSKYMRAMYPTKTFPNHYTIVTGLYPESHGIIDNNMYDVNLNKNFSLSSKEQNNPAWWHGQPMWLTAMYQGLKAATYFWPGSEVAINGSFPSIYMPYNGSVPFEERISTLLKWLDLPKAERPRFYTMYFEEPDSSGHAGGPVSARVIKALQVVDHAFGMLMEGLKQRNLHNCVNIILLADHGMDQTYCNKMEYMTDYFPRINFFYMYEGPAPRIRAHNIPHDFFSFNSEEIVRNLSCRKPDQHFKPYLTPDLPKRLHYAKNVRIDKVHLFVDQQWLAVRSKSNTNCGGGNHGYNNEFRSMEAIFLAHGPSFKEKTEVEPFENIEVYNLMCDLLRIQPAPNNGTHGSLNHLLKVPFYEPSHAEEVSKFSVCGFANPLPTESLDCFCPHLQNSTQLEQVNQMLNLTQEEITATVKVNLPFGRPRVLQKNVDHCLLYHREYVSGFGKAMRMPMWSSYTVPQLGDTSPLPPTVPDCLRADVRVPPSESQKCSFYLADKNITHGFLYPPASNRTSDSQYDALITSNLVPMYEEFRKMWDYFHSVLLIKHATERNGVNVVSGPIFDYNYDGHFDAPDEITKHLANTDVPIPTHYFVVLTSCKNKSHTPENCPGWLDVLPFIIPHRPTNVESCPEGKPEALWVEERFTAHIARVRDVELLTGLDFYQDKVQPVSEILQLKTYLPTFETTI
Put plainly: Inhibition of human NPP3 expressed in COS7 cell membranes at 100 uM using pNP-TMP as substrate preincubated for 3 mins followed by substrate addition and measured after 15 mins.

In data set [3] the target is T2, Ectonucleotide pyrophosphatase/phosphodiesterase family member 1 (Homo sapiens) (UniProt P22413).
T2 sequence (whole entry): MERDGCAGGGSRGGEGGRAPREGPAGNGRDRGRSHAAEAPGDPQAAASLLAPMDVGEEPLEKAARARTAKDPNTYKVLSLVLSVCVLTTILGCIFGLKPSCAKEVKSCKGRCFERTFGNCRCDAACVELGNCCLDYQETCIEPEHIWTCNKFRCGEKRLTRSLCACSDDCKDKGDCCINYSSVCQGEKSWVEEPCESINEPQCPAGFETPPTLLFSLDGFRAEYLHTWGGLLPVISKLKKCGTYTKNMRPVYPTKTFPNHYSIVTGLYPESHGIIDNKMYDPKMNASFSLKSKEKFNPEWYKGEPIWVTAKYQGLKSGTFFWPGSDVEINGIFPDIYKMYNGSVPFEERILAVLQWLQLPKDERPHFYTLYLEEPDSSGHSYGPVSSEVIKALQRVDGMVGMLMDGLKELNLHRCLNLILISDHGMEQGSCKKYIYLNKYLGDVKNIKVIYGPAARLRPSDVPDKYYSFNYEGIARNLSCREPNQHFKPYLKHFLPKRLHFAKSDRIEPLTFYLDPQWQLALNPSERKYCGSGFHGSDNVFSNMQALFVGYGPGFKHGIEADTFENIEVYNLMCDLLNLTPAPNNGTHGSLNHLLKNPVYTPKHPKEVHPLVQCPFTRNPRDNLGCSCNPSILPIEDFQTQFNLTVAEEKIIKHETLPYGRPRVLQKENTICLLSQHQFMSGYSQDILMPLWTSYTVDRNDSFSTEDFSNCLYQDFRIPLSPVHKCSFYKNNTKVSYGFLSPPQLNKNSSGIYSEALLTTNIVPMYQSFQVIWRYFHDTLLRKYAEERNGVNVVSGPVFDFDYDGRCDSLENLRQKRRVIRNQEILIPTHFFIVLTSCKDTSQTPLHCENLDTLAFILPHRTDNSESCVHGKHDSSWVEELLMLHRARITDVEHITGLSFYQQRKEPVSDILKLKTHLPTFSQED
Put plainly: Inhibition of human NPP1 expressed in COS7 cell membranes at 100 uM using pNP-TMP as substrate preincubated for 3 mins followed by substrate addition and measured after 15 mins relative to control.

Data set [4] addresses P2Y purinoceptor 2 (Homo sapiens) (UniProt P41231). Put plainly: Agonist activity at human P2Y2 receptor expressed in AD293 cells assessed as induction of IP1 accumulation at 0.1 to 1 uM. In kind it is functional, cell-based.
The target in data set [5] is T2, Ectonucleotide pyrophosphatase/phosphodiesterase family member 1 (Homo sapiens). Put plainly: Inhibition of human NPP1 expressed in COS7 cell membranes at 100 uM using pNP-TMP as substrate preincubated for 3 mins followed by substrate addition and measured after 15 mins.
Data set [6] deals with T1, Ectonucleotide pyrophosphatase/phosphodiesterase family member 3 (Homo sapiens). Nature of the data set: Inhibition of human NPP3 expressed in COS7 cell membranes at 100 uM using pNP-TMP as substrate preincubated for 3 mins followed by substrate addition and measured after 15 mins relative to control.
The species named for a further data set is Homo sapiens. Nature of the data set: Inhibition of alkaline phosphatase in human primary chondrocyte at 100 uM using p-nitrophenyl phosphate as substrate after 30 mins by […] relative to control.
The target in data set [7] is T3, Ectonucleotide pyrophosphatase/phosphodiesterase family member 1 (Homo sapiens, UniProt P22413).
T3 sequence (P22413 whole entry): T2 sequence (whole entry)
Put plainly: Inhibition of human NPP1 expressed in COS7 cell membranes using pNP-TMP as substrate preincubated for 3 mins followed by substrate addition and measured after 15 mins by Dixon plot analysis.

The nature of data set [8]: Cytotoxicity against human primary chondrocytes at 100 uM after 24 hrs by XTT assay.
Data set [9] deals with T2, Ectonucleotide pyrophosphatase/phosphodiesterase family member 1 (Homo sapiens). Nature of the data set: Inhibition of NPP-1 in human articular chondrocytes at 100 uM using p-Nph-5'-TMP as substrate after 3 hrs by […] relative to control. The data set is classed as cell-based.
Data set [10] has as its target P2Y purinoceptor 2 (Homo sapiens) (UniProt P41231). Nature of the data set: Partial agonist activity at human P2Y2 receptor expressed in AD293 cells assessed as inositol-1-phosphate accumulation at 100 uM. In kind it is functional, cell-based.

P2Y purinoceptor 2 (Homo sapiens), sequence (P41231 whole entry): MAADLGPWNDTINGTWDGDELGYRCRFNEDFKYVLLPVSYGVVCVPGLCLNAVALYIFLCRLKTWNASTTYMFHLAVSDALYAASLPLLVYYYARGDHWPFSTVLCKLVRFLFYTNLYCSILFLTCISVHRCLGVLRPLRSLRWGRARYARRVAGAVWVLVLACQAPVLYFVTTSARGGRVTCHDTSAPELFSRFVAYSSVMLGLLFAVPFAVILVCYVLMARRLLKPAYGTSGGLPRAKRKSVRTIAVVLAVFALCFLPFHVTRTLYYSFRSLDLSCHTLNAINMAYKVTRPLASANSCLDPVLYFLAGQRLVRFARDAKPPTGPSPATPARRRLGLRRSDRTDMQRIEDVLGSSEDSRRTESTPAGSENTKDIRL

Consider `O=c1ccn(COCCOP(=O)(O)C(Cl)(Cl)P(=O)(O)O)c(=O)[nH]1`, for which the result in data set [1] and in data set [4] was inactive. Further, the inhibition result in data set [2] is “Active”. This compound registered an inhibition in [3] of 51%.
With `O=c1ccn(COCCOP(=O)(O)O)c(=O)[nH]1`, the result in [1] was inactive. The inhibition entry in data set [2] and in data set [5] was “inactive” each time.
`O=c1ccn(COCCOP(=S)(S)OP(=O)(O)CP(=O)(O)O)c(=O)[nH]1` (stereo not drawn): the figures for the inhibition (in [6]; in the data set listed under Homo sapiens; in data set [3]) were 24%, under 10% and 96%, respectively. Moreover, the result in data set [1] was inactive. This compound gave a Ki in [7] of 940 nM. For the same compound, the Activity entry in data set [8] was “Non-Toxic”.
As for `O=c1ccn(COCCOP(=S)(S)OP(=O)(O)C(Cl)(Cl)P(=O)(O)O)c(=O)[nH]1` (stereo not drawn), the inhibition in [9] is 96%; in data set [6], 21%; in the data set filed under Homo sapiens, under 10%; in [3] it was 96%. Besides, the outcome in [1] was inactive. The compound further registered a Ki in data set [7] of 730 nM. The Activity result in [8] is listed as “Non-Toxic”.
Take `O=c1ccn(COCCO[PH](=O)O)c(=O)[nH]1`: the outcome in data set [1] and in [4] was inactive. Besides, the inhibition result in [2] and in data set [5] was “inactive” throughout.
Regarding `O=c1ccn(COCCOP(=O)(O)CP(=O)(O)O)c(=O)[nH]1`, the inhibition entry in data set [2] is “Active”. The compound also came in with an inhibition in data set [3] of 54%. Further, in [4], the outcome was inactive. The result in [10] was Active.

The values above are taken from ChEMBL document CHEMBL4311993, “Structure-activity relationship study of NPP1 inhibitors based on uracil-N1-(methoxy)ethyl-β-phosphate scaffold” (Eur J Med Chem, 2019).
